According to publication PMC6201103, “The Small-Compound Inhibitor K22 Displays Broad Antiviral Activity against Different Members of the Family Flaviviridae and Offers Potential as a Panviral Inhibitor” (Antimicrobial Agents and Chemotherapy, 2018):
Values joined by “and” are separate entries in the source; they are usually repeats but may differ in a detail not shown here. Equal entries are not always repeated. Where two headings read alike, the source gives them in different places.

How the values were obtained:
[1] = test system: Vero B4 cells; assay: Proliferation/viability, MultiTox-Fluor multiplex cytotoxicity assay on Vero B4 cells; format: cell-based
Procedure: (§1) To evaluate the effect of K22 on cell viability, proliferation, as well as cytotoxicity, uninfected cells were treated with the compound at the concentrations specified above or with DMSO as a control. To determine the effect of K22 on cell viability, Vero cells were collected and labeled with the Fixable Aqua dead cell stain kit (Thermo Fisher Scientific) for 30 min on ice, before the cells were washed with cold PBS and fixed for flow cytometry analysis. As a positive control for cell death, cells were heated at 65°C for 30 min. The mean fluorescence intensity (MFI) was determined by flow cytometry analysis on a FACSCanto II flow cytometer (BD Bioscience) and evaluated using FlowJo (v.9.1) software. […] The compound was added at the concentrations indicated above, and cytotoxicity was determined at 24 and/or 48 h p.i. by determination of the absorbance at 490 nm using a plate reader (VersaMax [Molecular Devices, Wokingham, UK] or an EnSpire 2300 multilabel reader [PerkinElmer, Schwerzenbach, Switzerland]). Cell proliferation following compound treatment was determined using a MultiTox-Fluor multiplex cytotoxicity assay (catalog number G9200; Promega) according to the manufacturer's recommendations. The readout was performed using a multilabel reader (EnSpire 2300 multilabel reader; PerkinElmer) upon excitation at ∼400 nm and emission at ∼505 nm. […]

[2] = test system: BVDV SuwaNcp; assay: BVDV SuwaNcp replication, qRT-PCR of viral RNA in BT cells; format: cell-based, bovine viral diarrhea virus
[3] = test system: JEV; assay: JEV infectivity (TCID50 titration) and replication in K22-treated Vero cells; format: cell-based, Japanese encephalitis virus; conditions: for IC50: Japanese encephalitis virus, MOI 0.1 TCID50/cell
Procedure: (§2) To test the effect of K22 on flavivirus, hepacivirus, and pestivirus infection, 8 × 10^4 Vero cells were seeded in 12-well dishes (flaviviruses), 5 × 10^4 Huh7-Lunet-N-hCD81-FLuc cells were seeded in 12-well dishes (hepacivirus), or 1 × 10^4 BT cells were seeded in 96-well dishes (pestivirus). At 1 day postseeding, cells were treated with different concentrations of K22 (diluted in DMSO at the concentrations indicated below) for 3 to 4 h and preincubated in 5% CO2 at 37°C. Cells were infected with different viruses at a multiplicity of infection (MOI) of 0.1 TCID50/cell for 1 h at 37°C. For HCV infection, cells were infected with JcR-2a or HCV Jc1 for 3 h at 37°C. Afterwards, cells were washed with prewarmed phosphate-buffered saline (PBS) solution, before cell culture medium supplemented with K22 or the DMSO control at each concentration was added, and incubated at 37°C in a 5% CO2 atmosphere. At 24 h and/or 48 h postinfection (p.i.), supernatants and cells were collected for further analysis.
(§3) Flavivirus replication and the cytopathic effect (CPE) were evaluated from collected cells. Cells in suspension were first labeled with the Fixable Aqua dead cell stain kit (Thermo Fisher Scientific, Waltham, MA, USA) for 30 min on ice, followed by washing with cold PBS. […] After washing, anti-mouse IgG2a conjugated with Alexa Fluor 647 (Thermo Fisher Scientific) was added for 15 min, and the cells were acquired on a FACSCanto II flow cytometer (BD Biosciences, Allschwil, Switzerland). FlowJo (v.9.1) software (TreeStar, Inc., Ashland, OR, USA) was used for analysis. Cell debris and doublets were excluded by electronic gating in forward/side scatter plots. Cell culture supernatants were collected at 24 and 48 h p.i., and the flavivirus titers in Vero cells were determined using the immunoperoxidase monolayer assay (IPMA). For that, supernatants 10-fold diluted in cell culture medium supplemented with 2% (vol/vol) FBS were incubated on Vero cells for 72 h at 37°C in a 5% CO2 atmosphere. At that point, cells were fixed in 4% (wt/vol) PFA for 10 min at room temperature, washed, and immunolabeled with anti-flavivirus group antigen antibody 4G2 diluted in 0.3% (wt/vol) saponin in PBS for 30 min at 37°C and then washed and incubated for another 30 min at 37°C with goat anti-mouse IgG conjugated with horseradish peroxidase (Dako), followed by incubation for 10 to 30 min at room temperature with 3-amino-9-ethylcarbazole (AEC) substrate (Sigma-Aldrich).

[4] = test system: ZIKV; assay: ZIKV infectivity (TCID50 titration of supernatant) and replication (E protein flow cytometry) in K22-treated Vero cells; format: cell-based, Zika virus; conditions: for IC50: Zika virus, Vero cells, MOI 0.1 TCID50/cell
Procedure: as §2, §3

[5] = test system: ZIKV; assay: Combination treatment, ZIKV titers (TCID50) in Vero B4 cells; conditions: for combination index (CI): CompuSyn
[6] = test system: Vero cells; assay: Cytotoxicity on Vero cells (Fixable Aqua dead cell stain flow cytometry; CytoTox 96 assay); format: cell-based; conditions: concentrations of Fig. 1c, confirmed with commercial kit
Procedure: as §1

[7] = test system: HCV; assay: HCV replication, JcR-2a Renilla luciferase reporter virus in Huh7-Lunet-N-hCD81-FLuc cells; format: cell-based, hepatitis C virus
[8] = Cytotoxicity, CytoTox 96 nonradioactive cytotoxicity assay on BT cells; format: cell-based, bovine; conditions: bovine, CytoTox 96 assay
Procedure: as §1

[9] = test system: BT cells; assay: as above; format: cell-based, bovine; conditions: concentrations used for BVDV
Procedure: as §1

[10] = test system: HCV; assay: HCV infectivity, supernatant transferred onto naive Huh7-Lunet-N-hCD81-FLuc cells, Renilla luciferase; format: cell-based, hepatitis C virus
[11] = test system: WNV; assay: WNV infectivity (TCID50 titration) and replication in K22-treated Vero cells; format: cell-based, West Nile virus; conditions: for IC50: West Nile virus, MOI 0.1 TCID50/cell
Procedure: as §2, §3

[12] = test system: USUV; assay: microbe, parasite or virus in culture; format: cell-based, Usutu virus; conditions: for IC50: Usutu virus, Vero, read-out: IC50, USUV infectivity
[13] = test system: ZIKV; assay: Direct effect on virus stability: ZIKV preincubated with K22, then titrated; format: cell-based, Zika virus; conditions: 2 h at room temperature, increasing K22 concentrations
Procedure: Shortly, the compound was diluted in DMSO to reach the desired concentrations (0, 5, 10, 20, 30, and 40 μM) and incubated with the cells for 2 h prior to infection, during infection, or after a period of 2, 6, 10, 14, 18, 22, or 24 h. […] Next, the inoculum was discarded, the cells were washed with prewarmed PBS, and culture medium was added to the wells. Additionally, in order to analyze the direct effect of K22 on virus stability, ZIKV in DMEM was incubated for 2 h at room temperature with the different K22 concentrations and titrated in 10-fold serial dilution on Vero cells for measurement of virus infectivity as described above.

[14] = test system: WESSV; assay: microbe, parasite or virus in culture; format: cell-based, Wesselsbron virus; conditions: for IC50: Wesselsbron virus, Vero, read-out: IC50, WESSV infectivity
[15] = test system: ZIKV; assay: Immunofluorescence analysis of E protein and dsRNA in ZIKV-infected Vero cells; conditions: 30 μM K22, 48 h p.i.
[16] = Proliferation, MultiTox-Fluor multiplex cytotoxicity assay on BT cells; format: cell-based, bovine; conditions: bovine, MultiTox-Fluor assay
Procedure: as §1

[17] = test system: BT cells; assay: as above; format: cell-based, bovine
Procedure: as §1

[18] = test system: BVDV SuwaCp; assay: microbe, parasite or virus in culture; format: cell-based, bovine viral diarrhea virus
[19] = test system: BVDV SuwaNcp; assay: microbe, parasite or virus in culture; format: cell-based, bovine viral diarrhea virus
[20] = test system: BVDV SuwaCp; assay: BVDV SuwaCp replication, qRT-PCR of viral RNA in BT cells; format: cell-based, bovine viral diarrhea virus
[21] = test system: Huh7-Lunet-N-hCD81-FLuc cells; assay: MTT cell proliferation assay; format: cell-based
[22] = MTT cell proliferation assay; format: cell-based; conditions: human, Huh7-Lunet-N-hCD81-FLuc cells, 48 h posttreatment
[23] = test system: ZIKV; assay: Time-of-addition assay, ZIKV in Vero B4 cells; format: cell-based, Zika virus; conditions: K22 added pre- or postinfection, supernatant at 24 h p.i.
[24] = test system: YFV; assay: microbe, parasite or virus in culture; format: cell-based, yellow fever virus; conditions: for IC50: Yellow fever virus, Vero, read-out: IC50, YFV infectivity
[25] = Bovine viral diarrhea virus isolates and strains, 48 h

O=C(N/C(=C\c1ccccc1)C(=O)N1CCC(O)(c2ccc(Br)cc2)CC1)c1ccccc1 [K22, (Z)-N-{3-[4-(4-bromophenyl)-4-hydroxypiperidin-1-yl]-3-oxo-1-phenylprop-1-en-2-yl} benzamide]
K22 concentrations that mildly affected cell proliferation [1]: ≥ 30 µM | IC50 [2, 25]: 34.7 µM | K22 concentrations necessary to significantly reduce viral replication of BVDV SuwaNcp ([2]; qRT-PCR, BT cells): ≥ 40 µM | SI (selectivity index), JEV ([3]; 24 h p.i.): 193.9 | SI (selectivity index), JEV ([3]; 48 h p.i.): 19.1 | IC50 ([3]; 24 h p.i., Vero cells): 0.5 µM | IC50 ([3]; 48 h p.i., Vero cells): 4.4 µM | K22 concentrations reducing JEV replication and infectivity ([3]; dose-dependent, Vero cells): ≥ 5 µM | SI (selectivity index), ZIKV ([4]; 24 h p.i.): 35.6 | SI (selectivity index), ZIKV ([4]; 48 h p.i.): 39.9 | IC50 ([4]; 24 h p.i.): 2.5 µM | IC50 ([4]; 48 h p.i.): 2.1 µM | reduction of ZIKV viral titers ([4]; higher concentrations of K22, Vero cells): up to 4 orders of magnitude | reduction of ZIKV viral titers ([5]; 5 to 10 μM K22 combined with ≥10 IU IFN-α, 24 h p.i., no further impact on cell proliferation): at least 3 orders of magnitude | combination index (CI) ([5]; K22 10 to 30 μM with 10 IU IFN-α, slight synergism): < 1 | combination index (CI) ([5]; K22 and RBV, concentrations causing only partial inhibition, additive effect): about 1 | effect of combination on antiviral effect of K22 ([5]; K22 with either 0.1 or 1 μg/ml RBV): did not improve the antiviral effect of K22 | cytotoxic effect of K22 [6]: no cytotoxic effect | CC50 relative to IC50 (replication), HCV ([7]; CC50 21.3 μM vs IC50 7.0 μM): 3 fold | IC50 ([7]; Hepatitis C virus, 48 h, read-out: IC50 for replication, HCV): 7 µM | K22 concentrations significantly reducing HCV replication as well as infectivity ([7]; {}): ≥ 20 µM | CC50 [8]: > 1000 µM | cellular toxicity of K22 [9]: no cellular toxicity | SI (selectivity index), HCV [10]: 9.7 | IC50 ([10]; Hepatitis C virus, 72 h, read-out: IC50 for infectivity, HCV): 2.2 µM | SI (selectivity index), WNV ([11]; 24 h p.i.): 32.3 | SI (selectivity index), WNV ([11]; 48 h p.i.): 10.0 | K22 concentrations significantly reducing WNV replication and infectivity ([11]; Vero cells): ≥ 10 µM | IC50 ([11]; 24 h p.i., Vero cells): 2.8 µM | IC50 ([11]; 48 h p.i., Vero cells): 8.4 µM | IC50 ([12]; 24 h): 9 µM | IC50 ([12]; 48 h): ~10 µM | K22 concentrations necessary to significantly inhibit USUV ([12]; Vero cells): ≥ 20 µM | effect of preincubation of ZIKV with K22 on infectivity [13]: does not affect ZIKV infectivity | SI (selectivity index), WESSV [14]: 15.2 and 12.5 | K22 concentrations necessary to significantly inhibit WESSV ([14]; Vero cells): ≥ 20 µM | IC50 ([14]; 24 h): 5.9 µM | IC50 ([14]; 48 h): 6.8 µM | viral E protein and dsRNA markers of infection [15]: severely reduced | CC50 [16]: > 350 µM | K22 concentrations affecting cell proliferation [17]: ≥ 30 µM | SI (selectivity index), BVDV SuwaCp [18]: >24.6 | IC50 ([18]; Bovine viral diarrhea virus isolates and strains, read-out: IC50 for infectivity, BVDV SuwaCp): 14.2 µM | SI (selectivity index), BVDV SuwaNcp [19]: >16.4 | K22 concentration necessary to significantly reduce infectivity of BVDV SuwaNcp ([19]; BT cells): ≥ 40 µM | IC50 ([19]; Bovine viral diarrhea virus isolates and strains, read-out: IC50 for infectivity, BVDV SuwaNcp): 21.4 µM | IC50 [20, 25]: 15.5 µM | K22 concentrations necessary to significantly reduce viral replication of BVDV SuwaCp ([20]; qRT-PCR, BT cells): ≥ 20 µM | K22 concentrations affecting the cells used for infection [21]: ≥ 20 µM | CC50 at 48 h [22]: 21.3 µM | antiviral activity by time of addition [23]: displayed antiviral activity when added at several hours postinfection | K22 concentrations reducing YFV replication and infectivity [24]: ≥ 5 µM | SI (selectivity index), YFV [24]: 24.3 and 36.7 | IC50 ([24]; 24 h): 3.7 µM | IC50 ([24]; 48 h): 2.3 µM

NC(=O)c1ncn([C@@H]2O[C@H](CO)[C@@H](O)[C@H]2O)n1 [RBV, ribavirin, reference compound]
effect of single treatment on ZIKV viral titers ([5]; 10 μg/ml RBV, 24 h p.i., Vero B4 cells): moderately reduced the viral titers | effect of single treatment on ZIKV viral titers ([5]; 100 μg/ml and 1,000 μg/ml RBV, 24 h p.i., Vero B4 cells): significantly reduced viral titers

IFN-α
effect of IFN-α on cell viability [1]: no effect on cell viability | IFN-α doses effective against ZIKV ([5]; single treatment, 24 h p.i., Vero B4 cells): ≥ 10 IU
